System: Spodoptera litoralis
Test: whole plant or invertebrate
Assay type: in vivo
Settings: 96 h, read-out: larvae mortality
Protocol: Nutrient medium (freeze-dried cube) is dipped into an aqueous solution of the formulated preparation to be examined and then placed into a Petri dish. Ten L2 larvae of the Egyptian cotton leaf worm (Spodoptera litoralis) are then added. The Petri dish is then closed with a lid. The effect of the preparation on the larvae is determined after 4 days of storage at about 23° C. At a concentration of 500 ppm (based on the content of active compound), the preparations of Example Nos. 5, 9, 12, 28, 29, 30, 35, 39, 40, 41, 42, 43, 45, 46, 48, 52, 63, 87, 90, 91, 92, 94, 97, 98, 99, 100, 103, 107, 113, 117, 120, 125, 566, 567, 573, 574, 589, 600, 613, 614, 619, 626 effect a larvae mortality of 80-100%.

CC1=NOC(c2ccc(C3COC(c4c(F)cccc4F)=N3)cc2)C1 (stereo not shown) [Example 566, 2-(2,6-Difluorophenyl)-4-(4-(3-methylisoxazolin-5-yl)phenyl)oxazoline]
mortality at 500 ppm: 80 to 100%

— patent US6645984B2, “Arylisoxazoline derivatives, processes for their preparation and their use as pesticides” (Aventis CropScience GmbH, priority 2001, dated 2003)
